Experimental findings from patent EP0293146A1, “Benzofuro [3,2-c] quinoline compounds” (Kissei Pharmaceutical Co Ltd, priority 1987, dated 1988) are described below.

Structures are written as SMILES.

In assay [1] the test system is Femur was isolated from 10- to 11-day chick embryo. Conditions: 100 µM.
Method: Inhibitory effect of various compounds on bone resorption was tested according to the method described in "Advanced Tissue Cultures For In Vitro Assay And Production" (pages 111-114, edited by Isao Yamane & Hiroyoshi Endo, Published by SOFT SCIENCE, Inc. Tokyo).
Femur was isolated from 10- to 11-day chick embryo. After cleaned from adherent soft tissues, the preparation was precultivated in 1 ml of BGJb-HW2 culture medium containing benzofuro[3,2-c]quinoline derivatives of the present invention at 37° C for 24 hours using the roller-tube method. Tested compounds were dissolved in dimethylsulfoxide at a concentration of 0.1 M and the solution was diluted with the culture medium to make a final concentration of 10-^4 M of those compounds. In the case of control group, the same volume of dimethylsulfoxide was added.
On the next day, the precultivated femur was further cultivated for 2 hours at 37° C in 1 ml of fresh culture medium containing 1 µCi/ml of ^45CaCl2 to label the bone mineral with ^45Ca. Then, the cultivated bone was rinsed with a phosphate-buffered saline warmed at 37' C to remove ^45Ca adhered to the bone. ^45Ca-Labelled bone was again cultivated using the roller-tube method (10 revolutions/hr), and the radioactivity of ^45Ca in an aliquot of the culture medium was determined by liquid scintillation counter at a point of 12, 24, 48 and 72 hours, respectively. The culture medium was freshed at each determination of the radioactivity. After completion of the cultivation, the bone was immersed in 1 ml of 1 N HCI for 24 hours to elute all calcium in the bone, and the remaining radioactivity in the bone was determined.
From the obtained data, the rate of remaining radioactivity of the bone to the initial radioactivity of the bone was measured at each observation. Then the eluting rate of bone mineral by osteoclasts was obtained by linear-regression of decay curve for the rate of remaining radioactivity in the bone after 24 to 72 hours of the cultivation, and turnover rate of calcium in the bone mineral accumulated in the cultivated bone was estimated as biological half-life (T1/2).
The potency of the inhibition of presented compounds was calculated by the following equation using T1/2.
Assay [2] has as its system Femur was isolated from 9-day chick embryo. Put plainly: Stimulatory effect on ossification (femur organ culture, calcium content). The format is cell-based. The conditions noted are these: 10-^5 M; cultivated for 6 days; eluted calcium versus paired control femur; mean value of 6 observations. On the procedure: Stimulatory effect of various compounds on ossification was tested according to the method described in "Advanced Tissue Cultures For In Vitro Assay And Production" (pages 111-114, edited by Isao Yamane & Hiroyoshi Endo, Published by SOFT SCIENCE, Inc. Tokyo).
Femur was isolated from 9-day chick embryo. After cleaned from adherent soft tissues, one femur of a paired femur was used for a test of compound of the present invention, and the other femur was used as control group. One preparation was placed directly on the inner surface of a glass roller-tube, and 2 ml of BGJb-HW2 culture medium was added to each tube. Each preparation was cultivated at 37° C by the roller-tube method (10 revolutions/hr) for 6 days. During the cultivation, femur length was measured, and the culture medium was freshed every other day. Tested compounds were dissolved in dimethylsulfoxide at a concentration of 0.01 M and the solution was diluted by the culture medium to make a final concentraiton of 10-^5 M of those compounds. In the case of control group, the same volume of dimethylsulfoxide was added.
After completion of the cultivation, the bone was immersed in 1 N HCI for 24 hours to elute all calcium in the bone, and the eluted calcium was determined by chelating method using orthocresolphthalein.
The potency of the stimulatory effect on ossification of presented compounds was calculated by the following equation. [formula]
The results are shown in the following table as the mean value of 6 observations.

Assay [3] has as its system femur of rats loaded low calcium diets. Put plainly: Effect on calcium and phosphorus contents in femur of rats loaded low calcium diets. The assay is classed as in vivo, male Wistar rats. Conditions: 300 mg/kg orally once a day for 2 weeks, mean±standard error of the mean of 10 observations. On the procedure: Twenty male Wistar rats of 3 weeks age were divided into 2 groups. All animals were raised with low calcium diets. Test compound, 3,9-dihydroxy-5H-benzofuro [3,2-c]quinolin-6-one (compound 2) suspended in 0.5% sodium carboxymethyl cellulose solution (CMC) was orally administered to 1 group at a dose of 300 mg/kg once a day for 2 weeks. Another group recieved the same volume of CMC. After completion of the experiment, calcium and phosphorus contents in the femur were determined.
The results were shown in the following table as mean±standard error of the mean of 10 observations.

For the molecule `CC(C)Oc1ccc2c(c1)[nH]c(=O)c1c3ccc(OC(C)C)cc3oc21` [Compound 8, 3,9-Diisopropoxy-5H-benzofuro[3,2-c]quinolin-6-one], the “Inhibitory potency on bone resorption” value in assay [1] is 1.24.
`O=c1[nH]c2cc(OCCCO)ccc2c2oc3cc(O)ccc3c12` [Compound 11, 9-Hydroxy-3-(3-hydroxypropoxy)-5H-benzofuro[3,2-c]quinolin-6-one]: the “Stimulatory potency on ossification” value in assay [2] turned out to be 1.14. The “Inhibitory potency on bone resorption” value in assay [1] came out at 2.89.
On to `O=c1[nH]c2cc(OCCCO)ccc2c2oc3ccccc3c12` [Compound 5, 3-(3-Hydroxypropoxy)-5H-benzofuro[3,2-c]quinolin-6-one], for which the “Inhibitory potency on bone resorption” value in assay [1] was 1.26.
With `CC(C)Oc1ccc2c(c1)[nH]c(=O)c1c3ccccc3oc21` [Compound 4, 3-Isopropoxy-5H-benzofuro[3,2-c]quinolin-6-one], the “Inhibitory potency on bone resorption” value in assay [1] came to 1.16.
The same measure, in the same setting: the value for `O=c1[nH]c2cc(OCCCO)ccc2c2oc3cc(OCCCO)ccc3c12` [Compound 10, 3,9-Bis(3-hydroxypropoxy)-5H-benzofuro[3,2-c]quinolin-6-one] was 1.40; that for `CC(Oc1ccc2c(c1)[nH]c(=O)c1c3ccccc3oc21)C(=O)O` (stereo not drawn) [Compound 7, 3-(1-Carboxyethoxy)-5H-benzofuro[3,2-c]quinolin-6-one] was 1.10; that for `CCOC(=O)C(C)Oc1ccc2c(c1)[nH]c(=O)c1c3ccc(OC(C)C(=O)OCC)cc3oc21` (stereo not drawn) [Compound 12, 3,9-Bis(1-ethoxycarbonylethoxy)-5H-benzofuro[3,2-c]quinolin-6-one] was 1.16.
`O=c1[nH]c2cc(O)ccc2c2oc3ccc(O)cc3c12` [Compound 3, 3,8-Dihydroxy-5H-benzofuro[3,2-c]quinolin-6-one]: in assay [1], the “Inhibitory potency on bone resorption” value is recorded as 2.52.
Take `O=c1[nH]c2cc(O)ccc2c2oc3cc(O)ccc3c12` [Compound 2, 3,9-Dihydroxy-5H-benzofuro[3,2-c]quinolin-6-one]: the “Stimulatory potency on ossification” value in assay [2] is recorded as 1.11. In addition, in assay [3], the “Amount of calcium (mg/femur)” value stood at 8.1±0.50 mg/femur and the “Amount of phosphorus (mg/femur)” value stood at 5.1±0.26 mg/femur. Moreover, the “Inhibitory potency on bone resorption” value in assay [1] is 1.97.
As to `O=c1[nH]c2cc(O)ccc2c2oc3ccccc3c12` [Compound 1, 3-Hydroxy-5H-benzofuro[3,2-c]quinolin-6-one], in assay [1], the “Inhibitory potency on bone resorption” value is on record as 1.24.
On to `CC(C)Oc1ccc2c(c1)[nH]c(=O)c1c3ccc(O)cc3oc21` [Compound 9, 9-Hydroxy-3-isopropoxy-5H-benzofuro[3,2-c]quinolin-6-one], for which the “Stimulatory potency on ossification” value in assay [2] turned out to be 1.08. In addition, in assay [1], the “Inhibitory potency on bone resorption” value was 2.89.
For the molecule `CCOC(=O)C(C)Oc1ccc2c(c1)[nH]c(=O)c1c3ccccc3oc21` (stereo not drawn) [Compound 6, 3-(1-Ethoxycarbonylethoxy)-5H-benzofuro[3,2-c]quinolin-6-one], the “Inhibitory potency on bone resorption” value in assay [1] is recorded as 1.10.
On to `COc1ccc2c(c1)[nH]c(=O)c1c3ccc(OC)cc3oc21` [Compound 13, 3,9-Dimethoxy-5H-benzofuro[3,2-c]quinolin-6-one], for which the “Inhibitory potency on bone resorption” value in assay [1] stood at 1.04.
